# In the supplement of paper PMC10307832:
# Assays:
# Experiment in all cases: relative viability (nuclei count vs DMSO), 5 days (fraction); higher = more cells survive
# Venetoclax + OSI-027 = compound: CC1(C)CCC(CN2CCN(c3ccc(C(=O)NS(=O)(=O)c4ccc(NCC5CCOCC5)c([N+](=O)[O-])c4)c(Oc4cnc5[nH]ccc5c4)c3)CC2)=C(c2ccc(Cl)cc2)C1 [Venetoclax] + COc1cccc2cc(-c3nc([C@H]4CC[C@H](C(=O)O)CC4)n4ncnc(N)c34)[nH]c12 [OSI-027] (partner 0.5 µM)
# How it was run: (§1)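 One day after seeding in 1536-well plates, lung cancer cell lines were dosed by pin tool. Dosing was either single-drug or a fixed anchor-drug dose plus five library-drug doses (not always all listed) in √10 steps. After 5 days, nuclei were stained in one fix-and-stain step and counted on 4× images, and relative viability is the nuclei count of treated wells over that of vehicle wells, given as the median of duplicate plates.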
# Selumetinib + Luminespib = compound: Cn1cnc2c(F)c(Nc3ccc(Br)cc3Cl)c(C(=O)NOCCO)cc21 [Selumetinib] + CCNC(=O)c1noc(-c2cc(C(C)C)c(O)cc2O)c1-c1ccc(CN2CCOCC2)cc1 [Luminespib] (partner 0.01 µM)
# How it was run: as §1
# Selumetinib + Lapatinib = compound: Cn1cnc2c(F)c(Nc3ccc(Br)cc3Cl)c(C(=O)NOCCO)cc21 [Selumetinib] + CS(=O)(=O)CCNCc1ccc(-c2ccc3ncnc(Nc4ccc(OCc5cccc(F)c5)c(Cl)c4)c3c2)o1 [Lapatinib] (partner 2 µM)
# How it was run: as §1
# Selumetinib + AZD7762 = compound: Cn1cnc2c(F)c(Nc3ccc(Br)cc3Cl)c(C(=O)NOCCO)cc21 [Selumetinib] + NC(=O)Nc1cc(-c2cccc(F)c2)sc1C(=O)N[C@H]1CCCNC1 [AZD7762] (partner 0.2 µM)
# How it was run: as §1
Cell Line,relative viability (Venetoclax + OSI-027; first compound 0.01 µM),relative viability (Venetoclax + OSI-027; first compound 0.03162 µM),relative viability (Venetoclax + OSI-027; first compound 0.1 µM),relative viability (Venetoclax + OSI-027; first compound 0.3162 µM),relative viability (Venetoclax + OSI-027; first compound 1 µM),relative viability (Selumetinib + Luminespib; first compound 0.02 µM),relative viability (Selumetinib + Luminespib; first compound 0.06325 µM),relative viability (Selumetinib + Luminespib; first compound 0.2 µM),relative viability (Selumetinib + Luminespib; first compound 0.6325 µM),relative viability (Selumetinib + Lapatinib; first compound 0.02 µM),relative viability (Selumetinib + Lapatinib; first compound 0.06325 µM),relative viability (Selumetinib + Lapatinib; first compound 0.2 µM),relative viability (Selumetinib + Lapatinib; first compound 0.6325 µM),relative viability (Selumetinib + AZD7762; first compound 0.02 µM),relative viability (Selumetinib + AZD7762; first compound 0.06325 µM),relative viability (Selumetinib + AZD7762; first compound 0.2 µM),relative viability (Selumetinib + AZD7762; first compound 0.6325 µM)
NCI-H322M,0.667,0.575,0.605,0.564,0.48,0.739,0.547,0.572,0.481,0.524,0.479,0.439,0.438,0.453,0.443,0.45,0.527
NCI-H1395,0.623,0.603,0.605,0.656,0.662,0.575,0.713,0.643,0.694,0.982,0.997,0.93,1.05,0.389,0.38,0.391,0.355
NCI-H838,0.493,0.405,0.37,0.377,0.435,0.369,0.331,0.207,0.259,0.838,0.732,0.861,0.671,0.87,0.844,0.878,0.824
NCI-H1993,0.562,0.505,0.519,0.486,0.605,0.786,0.776,0.695,0.569,0.931,0.762,0.887,0.706,0.842,0.733,0.634,0.666
CAL-12T,0.641,0.693,0.639,0.549,0.413,0.322,0.365,0.284,0.362,0.542,0.425,0.523,0.521,0.64,0.574,0.566,0.568
LCLC-97TM1,0.519,0.704,0.556,0.478,0.465,0.79,0.622,0.415,0.411,1.05,0.985,0.86,0.481,0.244,0.179,0.219,0.136
NCI-H1355,0.409,0.5,0.38,0.386,0.355,0.665,0.736,0.6,0.476,0.959,0.785,0.693,0.558,0.818,0.711,0.748,0.565
NCI-H596,0.704,0.748,0.694,0.748,0.587,1.13,1.06,0.914,0.725,0.961,1.03,0.921,0.68,1.06,1.14,1.02,0.768
NCI-H1944,0.483,0.431,0.378,0.411,0.376,0.907,0.59,0.48,0.445,0.812,0.666,0.63,0.634,0.448,0.438,0.401,0.427
NCI-H2085,0.838,0.769,0.707,0.746,0.53,0.527,0.402,0.376,0.326,0.75,0.706,0.713,0.68,0.914,0.906,0.864,0.722
201T,0.728,0.724,0.687,0.774,0.628,1.08,1.03,0.962,0.906,1.01,0.963,0.958,0.949,0.602,0.615,0.554,0.6
NCI-H2405,0.64,0.711,0.624,0.612,0.619,0.603,0.597,0.426,0.327,1.05,0.852,0.644,0.591,0.729,0.492,0.561,0.466
LXF-289,0.753,0.857,0.881,0.771,0.623,0.692,0.688,0.491,0.544,0.874,0.839,0.761,0.758,0.958,0.887,0.829,0.85
LC-2-ad,1.01,0.934,0.72,0.905,0.845,0.912,0.882,0.88,0.83,0.91,0.879,0.736,0.842,0.687,0.633,0.572,0.477
NCI-H2126,0.691,0.794,0.719,0.692,0.636,0.839,0.756,0.792,0.782,0.714,0.671,0.7,0.667,1.03,0.981,0.987,0.903
BEN,0.291,0.295,0.289,0.281,0.281,0.28,0.83,0.404,0.347,0.69,0.829,0.637,0.648,0.587,0.624,0.634,0.736
LK-2,0.317,0.204,0.22,0.22,0.161,0.151,0.136,0.19,0.165,1.16,0.852,0.848,0.924,0.474,0.425,0.502,0.243
NCI-H460,0.681,0.592,0.585,0.62,0.515,0.0285,0.0384,0.041,0.0306,0.921,0.709,0.555,0.399,0.695,0.663,0.598,0.662
NCI-H647,0.69,0.769,0.625,0.589,0.509,0.195,0.141,0.125,0.136,0.964,0.872,0.876,0.957,0.466,0.441,0.366,0.271
